How the values were obtained:
[1] = tested on: cotton aphid (Aphis gossypii); experiment: Aphis gossypii test (APHIGO spray treatment); type: in vivo; conditions: cotton leaves sprayed, 6 days; for pest or weed control at 0.8 ppm: 0.8 ppm a.i. alone; for pest or weed control at 4 ppm: 4 ppm a.i. alone; for pest or weed control at 20 ppm: 20 ppm a.i. alone
Procedure: Aphis gossypii Test (APHIGO Spray Treatment)
(§1) Solvent: 7 parts by weight of dimethylformamide
(§2) Emulsifier: 2 parts by weight of alkylaryl polyglycol ether
(§3) To prepare a ready-to-use active ingredient formulation, 1 part by weight of active ingredient is mixed with the specified amounts of solvent and emulsifier and the concentrate is diluted with emulsifier-containing water to the desired concentration. In the case that addition of ammonium salts, penetrants, or ammonium salts and penetrants is required, they are pipetted in each case into the finished preparation solution after dilution in a concentration of 1000 ppm each.
Cotton leaves (Gossypium hirsutum) highly infested by the cotton aphid (Aphis gossypii) are sprayed with an active ingredient formulation with the desired concentration.
After the desired period, the kill rate in % is determined. 100% means that all aphids have been killed; 0% means that no aphids have been killed.

[2] = tested on: green peach aphid (Myzus persicae); experiment: Myzus persicae test (MYZUPE); type: in vivo; conditions: pepper plants sprayed, 6 days; for pest or weed control at 0.8 ppm / pest or weed control at 20 ppm / pest or weed control at 4 ppm / pest or weed control at 100 ppm: Myzus persicae, 144 h, read-out: Kill in % after 6 days a.i.; for pest or weed control at 0.8 ppm: 0.8 ppm a.i. alone; for pest or weed control at 20 ppm: 20 ppm a.i. alone; for pest or weed control at 4 ppm: 4 ppm a.i. alone; for pest or weed control at 100 ppm: 100 ppm a.i. alone
Procedure: Myzus persicae Test (MYZUPE)
as §1, §2
as §3, with “prepare an appropriate” for “prepare a ready-to-use”, “the given” for “the specified”, “and emulsifier,” for “and emulsifier”, “are pippetted” for “are pipetted”
Pepper plants (Capsicum annuum) highly infested by the green peach aphid (Myzus persicaei) are treated by spraying with the active ingredient formulation in the desired concentration.
After the desired time, the kill rate in % is determined. 100% means that all animals have been killed; 0% means that no animals have been killed.

[3] = 0.8 ppm a.i. + AMS and RME 1000 ppm each
[4] = 0.8 ppm a.i. + ammonium sulphate 1000 ppm
[5] = 0.8 ppm a.i. + rapeseed oil methyl ester 1000 ppm
[6] = 4 ppm a.i. + AMS and RME 1000 ppm each
[7] = 4 ppm a.i. + ammonium sulphate 1000 ppm
[8] = 4 ppm a.i. + rapeseed oil methyl ester 1000 ppm
[9] = Aphis gossypii, 144 h, read-out: Kill in % after 6 days a.i.
[10] = 20 ppm a.i. + AMS and RME 1000 ppm each
[11] = 20 ppm a.i. + ammonium sulphate 1000 ppm
[12] = 20 ppm a.i. + rapeseed oil methyl ester 1000 ppm
[13] = 100 ppm a.i. + AMS and RME 1000 ppm each
[14] = 100 ppm a.i. + ammonium sulphate 1000 ppm
[15] = 100 ppm a.i. + rapeseed oil methyl ester 1000 ppm

Compound: O=C1C=C(N(Cc2cnc(Cl)c(F)c2)C2CC2)CO1 [Compound I-13, 4-{[(6-chloro-5-fluoropyrid-3-yl)methyl](cyclopropyl)amino}furan-2(5H)-one]
- Kill in % after 6 days +AMS + RME [1, 3]: 20%
- Kill in % after 6 days +AMS [1, 4]: 5%
- Kill in % after 6 days +RME [1, 5]: 5%
- Kill in % after 6 days +AMS + RME [1, 6]: 75%
- Kill in % after 6 days +AMS [1, 7]: 65%
- Kill in % after 6 days +RME [1, 8]: 75%
- pest or weed control at 0.8 ppm [1, 9]: 0%
- pest or weed control at 4 ppm [1, 9]: 80%
- Kill in % after 6 days +AMS + RME [2, 3]: 90%
- Kill in % after 6 days +AMS [2, 4]: 5%
- Kill in % after 6 days +RME [2, 5]: 35%
- pest or weed control at 0.8 ppm [2]: 5%

Compound: C#CCN(Cc1ccc(Cl)nc1)C1=CC(=O)CCC1 [Compound I-36, 3-{[(6-chloropyrid-3-yl)methyl](prop-2-yn-1-yl)amino}cyclohex-2-en-1-one]
- Kill in % after 6 days +AMS + RME [1, 10]: 65%
- Kill in % after 6 days +AMS [1, 11]: 15%
- Kill in % after 6 days +RME [1, 12]: 45%
- Kill in % after 6 days +AMS + RME [1, 13]: 99%
- Kill in % after 6 days +AMS [1, 14]: 98%
- Kill in % after 6 days +RME [1, 15]: 80%
- pest or weed control at 20 ppm [1, 9]: 30%
- pest or weed control at 100 ppm ([1]; Aphis gossypii, 144 h, 100 ppm a.i. alone, read-out: Kill in % after 6 days a.i.): 55%
- Kill in % after 6 days +AMS + RME [2, 10]: 85%
- Kill in % after 6 days +AMS [2, 11]: 25%
- Kill in % after 6 days +RME [2, 12]: 85%
- pest or weed control at 20 ppm [2]: 40%

Compound: O=C1C=C(N(Cc2cnc(Br)c(F)c2)C2CC2)CO1 [Compound I-12, 4-{[(6-bromo-5-fluoropyrid-3-yl)methyl](cyclopropyl)amino}furan-2(5H)-one]
- Kill in % after 6 days +AMS + RME [1, 3]: 25%
- Kill in % after 6 days +AMS [1, 4]: 5%
- Kill in % after 6 days +RME [1, 5]: 10%
- Kill in % after 6 days +AMS + RME [1, 6]: 75%
- Kill in % after 6 days +AMS [1, 7]: 80%
- Kill in % after 6 days +RME [1, 8]: 85%
- pest or weed control at 0.8 ppm [1, 9]: 0%
- pest or weed control at 4 ppm [1, 9]: 55%
- Kill in % after 6 days +AMS + RME [2, 3]: 45%
- Kill in % after 6 days +AMS [2, 4]: 0%
- Kill in % after 6 days +RME [2, 5]: 10%
- Kill in % after 6 days +AMS + RME [2, 6]: 95%
- Kill in % after 6 days +AMS [2, 7]: 95%
- Kill in % after 6 days +RME [2, 8]: 100%
- pest or weed control at 0.8 ppm [2]: 5%
- pest or weed control at 4 ppm [2]: 85%

Compound: C#CCN(Cc1ccc(Cl)nc1)C1=CC(=O)OC1 [Compound I-33, 4-{[(6-chloropyrid-3-yl)methyl](prop-2-yn-1-yl)amino}furan-2(5H)-one]
- Kill in % after 6 days +AMS + RME [1, 6]: 15%
- Kill in % after 6 days +AMS [1, 7]: 25%
- Kill in % after 6 days +RME [1, 8]: 65%
- pest or weed control at 4 ppm [1, 9]: 30%
- Kill in % after 6 days +AMS + RME [2, 13]: 95%
- Kill in % after 6 days +AMS [2, 14]: 45%
- Kill in % after 6 days +RME [2, 15]: 95%
- pest or weed control at 100 ppm [2]: 40%

Compound: CN(Cc1cccnc1)C1=CC(=O)OC1 [Compound I-21, 4-[methyl(pyrid-3-ylmethyl)amino]furan-2(5H)-one]
- Kill in % after 6 days +AMS + RME [1, 6]: 45%
- Kill in % after 6 days +AMS [1, 7]: 5%
- Kill in % after 6 days +RME [1, 8]: 50%
- pest or weed control at 4 ppm [1, 9]: 10%
- Kill in % after 6 days +AMS + RME [2, 13]: 65%
- Kill in % after 6 days +AMS [2, 14]: 70%
- Kill in % after 6 days +RME [2, 15]: 90%
- pest or weed control at 100 ppm [2]: 50%

Compound: C=CCN(Cc1ccc(Cl)nc1)C1=CC(=O)OC1 [Compound I-32, 4-{allyl[(6-chloropyrid-3-yl)methyl]amino}furan-2(5H)-one]
- Kill in % after 6 days +AMS + RME [1, 10]: 100%
- Kill in % after 6 days +AMS [1, 11]: 100%
- Kill in % after 6 days +RME [1, 12]: 100%
- pest or weed control at 20 ppm [1, 9]: 0%
- Kill in % after 6 days +AMS + RME [2, 6]: 80%
- Kill in % after 6 days +AMS [2, 7]: 60%
- Kill in % after 6 days +RME [2, 8]: 70%
- Kill in % after 6 days +AMS + RME [2, 10]: 100%
- Kill in % after 6 days +AMS [2, 11]: 100%
- Kill in % after 6 days +RME [2, 12]: 98%
- pest or weed control at 4 ppm [2]: 0%
- pest or weed control at 20 ppm [2]: 15%

Compound: CN(Cc1cnc(Cl)c(F)c1)C1=CC(=O)OC1 [Compound I-8, 4-{[(6-chloro-5-fluoropyrid-3-yl)methyl](methyl)amino}furan-2(5H)-one]
- Kill in % after 6 days +AMS + RME [1, 3]: 75%
- Kill in % after 6 days +AMS [1, 4]: 30%
- Kill in % after 6 days +RME [1, 5]: 60%
- pest or weed control at 0.8 ppm [1, 9]: 20%
- Kill in % after 6 days +AMS + RME [2, 3]: 95%
- Kill in % after 6 days +AMS [2, 4]: 50%
- Kill in % after 6 days +RME [2, 5]: 95%
- pest or weed control at 0.8 ppm [2]: 40%

Compound: O=C1C=C(N(CCF)Cc2cnc(Cl)s2)CO1 [Compound I-4, 4-{[(2-chloro-1,3-thiazol-5-yl)methyl](2-fluoroethyl)amino}furan-2(5H)-one]
- Kill in % after 6 days +AMS + RME [1, 6]: 85%
- Kill in % after 6 days +AMS [1, 7]: 20%
- Kill in % after 6 days +RME [1, 8]: 65%
- pest or weed control at 4 ppm [1, 9]: 20%
- Kill in % after 6 days +AMS + RME [2, 6]: 100%
- Kill in % after 6 days +AMS [2, 7]: 80%
- Kill in % after 6 days +RME [2, 8]: 90%
- pest or weed control at 4 ppm [2]: 15%

Compound: O=C1C=C(N(Cc2ccc(Cl)nc2)C2CC2)CC1 [Compound I-19, 3-{[(6-chloropyrid-3-yl)methyl](cyclopropyl)amino}cyclopent-2-en-1-one]
- Kill in % after 6 days +AMS + RME [1, 3]: 50%
- Kill in % after 6 days +AMS [1, 4]: 0%
- Kill in % after 6 days +RME [1, 5]: 40%
- Kill in % after 6 days +AMS + RME [1, 6]: 80%
- Kill in % after 6 days +AMS [1, 7]: 40%
- Kill in % after 6 days +RME [1, 8]: 85%
- pest or weed control at 0.8 ppm [1, 9]: 0%
- pest or weed control at 4 ppm [1, 9]: 15%
- Kill in % after 6 days +AMS + RME [2, 10]: 100%
- Kill in % after 6 days +AMS [2, 11]: 80%
- Kill in % after 6 days +RME [2, 12]: 98%
- pest or weed control at 20 ppm [2]: 80%

Compound: CN(Cc1ccc(Cl)nc1)C1=C(F)C(=O)OC1 [Compound I-28, 4-{[(6-chloropyrid-3-yl)methyl](methyl)amino}-3-fluorofuran-2(5H)-one]
- Kill in % after 6 days +AMS + RME [1, 6]: 80%
- Kill in % after 6 days +AMS [1, 7]: 60%
- Kill in % after 6 days +RME [1, 8]: 75%
- Kill in % after 6 days +AMS + RME [1, 10]: 95%
- Kill in % after 6 days +AMS [1, 11]: 90%
- Kill in % after 6 days +RME [1, 12]: 95%
- pest or weed control at 4 ppm [1, 9]: 50%
- pest or weed control at 20 ppm [1, 9]: 55%
- Kill in % after 6 days +AMS + RME [2, 6]: 95%
- Kill in % after 6 days +AMS [2, 7]: 15%
- Kill in % after 6 days +RME [2, 8]: 90%
- pest or weed control at 4 ppm [2]: 50%

Compound: CN(Cc1ccc(C(F)(F)F)nc1)C1=CC(=O)OC1 [Compound I-23, 4-(methyl {[6-(trifluoromethyl)pyrid-3-yl]methyl}amino)furan-2(5H)-one]
- Kill in % after 6 days +AMS + RME [1, 3]: 25%
- Kill in % after 6 days +AMS [1, 4]: 15%
- Kill in % after 6 days +RME [1, 5]: 50%
- pest or weed control at 0.8 ppm [1, 9]: 10%
- Kill in % after 6 days +AMS + RME [2, 3]: 80%
- Kill in % after 6 days +AMS [2, 4]: 10%
- Kill in % after 6 days +RME [2, 5]: 75%
- pest or weed control at 0.8 ppm [2]: 35%

Compound: O=C1C=C(N(CCF)Cc2ccc(Cl)nc2)CO1 [Compound I-6, 4-{[(6-chloropyrid-3-yl)methyl](2-fluoroethyl)amino}furan-2(5H)-one]
- Kill in % after 6 days +AMS + RME ([1]; 0.16 ppm a.i. + AMS and RME 1000 ppm each): 40%
- Kill in % after 6 days +AMS ([1]; 0.16 ppm a.i. + ammonium sulphate 1000 ppm): 0%
- Kill in % after 6 days +RME ([1]; 0.16 ppm a.i. + rapeseed oil methyl ester 1000 ppm): 25%
- Kill in % after 6 days +AMS + RME [1, 3]: 70%
- Kill in % after 6 days +AMS [1, 4]: 55%
- Kill in % after 6 days +RME [1, 5]: 80%
- pest or weed control at 0.16 ppm ([1]; Aphis gossypii, 144 h, 0.16 ppm a.i. alone, read-out: Kill in % after 6 days a.i.): 0%
- pest or weed control at 0.8 ppm [1, 9]: 45%
- Kill in % after 6 days +AMS + RME [2, 6]: 100%
- Kill in % after 6 days +AMS [2, 7]: 85%
- Kill in % after 6 days +RME [2, 8]: 100%
- pest or weed control at 4 ppm [2]: 60%
